Assay results: US20100190846A1, “MICROBICIDAL AGENT AND MICROBICIDAL COMPOSITION” (priority 2006, published 2010)
≈ marks a conversion by molar mass, not a printed value.

Legend:
Test in all cases: Agar dilution method microbicidal test
Format in all cases: cell-based
[1] = tested on: Bacillus cereus; on Growth on agar plate: key: +: grew; −: did not grow
Description: (§1) As microbicidal test method for trans-p-coumaric acid, 3-hydroxypyridine, p-hydroxybenzaldehyde and vanillin, the agar dilution method was employed.
(§2) In agar dilution method, a solution in which a sample is dissolved is serially diluted several times, and each of the diluted sample solutions is mixed with agar medium to prepare plate agars having various sample concentration. Then bacteria is inoculated onto the plate agars. In cases where the sample has a microbicidal activity, the growth of the bacteria on the plates can be inhibited. The lowest concentration which can inhibit the growth of the bacteria is referred to as Minimum Inhibitory Concentration (MIC), thereby judging the degree of a microbicidal activity of the sample.
(§3) First, 400 mg of sample was dissolved in 1 mL of DMSO to prepare 400 mg/mL sample solution. Then 0.5 mL of this 400 mg/mL sample solution was diluted 2-fold to prepare 200 mg/mL sample solution. In the same manner, sample solutions of 100 mg/mL, 50.0 mg/mL, and 25.0 mg/mL were prepared. In addition, 300 mg/mL sample solution was prepared. Thereafter, 0.2 mL of these sample solutions each was mixed with 19.8 mL of BHI (Brain Heart Infusion Agar, Becton Dickinson, MD) medium, thereby preparing agar plates having the sample concentration of 4.0 mg/mL, 3.0 mg/mL, 2.0 mg/mL, 1.0 mg/mL, 0.5 mg/mL, and 0.25 mg/mL in dishes. […] Sterilized water was used for dissolving catechin, because catechin was insoluble in DMSO.
(§4) As test bacteria, 13 kinds of bacteria, i.e., Streptococcus pneumoniae, Streptococcus pyogenes, Enterococcus faecalis, Staphylococcus aureus, Escherichia coli, Salmonella sp., Yersinia enterocolitica, Vibrio parahaemolyticus, Pseudomonas aeruginosa, Bacillus cereus, Bacillus subtilis MB-32, Bacillus subtilis ATCC6633, and Candida sp., were used. These bacteria each was mixed with 2 mL of sterilized MHB^R liquid medium (Mueller Hinton Broth^R, Becton Dickinson, MD) to prepare bacterial suspension having turbidity 1 (bacterial concentration 10^8/mL). Previously, small test tubes were set into each cell of a grating and sterilized, and 1 mL of 13 bacterial suspensions were added into the small test tubes set in the grating, respectively. By using a microplanter (SAKUMA, model: MIT-P), 10 μL aliquot was collected from each test tube set in the grating and transferred to other test tube, and the transferred bacterial suspensions were diluted 100-fold (bacterial concentration 10^6/mL).
(§5) By using the microplanter, 10 μL (bacterial number […]) of this bacterial suspension was inoculated onto the plates containing the sample solution of various concentrations. The plates were incubated for 18 hours in an incubator at 37° C., and then a microbicidal activity of each compound was assessed.

[2] = tested on: Bacillus subtilis ATCC6633; on Growth on agar plate: key: +: grew; −: did not grow
Description: as §1, §2, §3, §4, §5

[3] = tested on: Bacillus subtilis MB-32; further: key: +: grew; −: did not grow
Description: as §1, §2, §3, §4, §5

[4] = tested on: Candida sp. On Growth on agar plate: key: +: grew; −: did not grow.
Description: as §1, §2, §3, §4, §5

[5] = tested on: Enterococcus faecalis; further: key: +: grew; −: did not grow
Description: as §1, §2, §3, §4, §5

[6] = tested on: Escherichia coli; further: key: +: grew; −: did not grow
Description: as §1, §2, §3, §4, §5

[7] = tested on: Pseudomonas aeruginosa; further: key: +: grew; −: did not grow
Description: as §1, §2, §3, §4, §5

[8] = tested on: Salmonella sp. Further: key: +: grew; −: did not grow.
Description: as §1, §2, §3, §4, §5

[9] = tested on: Staphylococcus aureus; on Growth on agar plate: key: +: grew; −: did not grow
Description: as §1, §2, §3, §4, §5

[10] = tested on: Streptococcus pneumoniae; on Growth on agar plate: key: +: grew; −: did not grow
Description: as §1, §2, §3, §4, §5

[11] = tested on: Streptococcus pyogenes; on Growth on agar plate: key: +: grew; −: did not grow
Description: as §1, §2, §3, §4, §5

[12] = tested on: Vibrio parahaemolyticus; on Growth on agar plate: key: +: grew; −: did not grow
Description: as §1, §2, §3, §4, §5

[13] = tested on: Yersinia enterocolitica; on Growth on agar plate: key: +: grew; −: did not grow
Description: as §1, §2, §3, §4, §5

[14] = BHI agar, 37° C., 18 hours, read-out: MIC

O=C(O)/C=C/c1ccc(O)cc1 [trans-p-Coumaric Acid, trans-p-coumaric acid]
activity (in words) [1]: had an activity | Growth on agar plate ([1]; 0.25 mg/mL): + | Growth on agar plate ([1]; 0.5 mg/mL): + | Growth on agar plate ([1]; 1.0 mg/mL): + | Growth on agar plate ([1]; 2.0 mg/mL): + | Growth on agar plate ([1]; 3.0 mg/mL): − | Growth on agar plate ([1]; 4.0 mg/mL): − | MIC [1, 14]: 3000 mg/L (≈ 18.3 mM) | MIC ([2]; ATCC6633, Bacillus subtilis ATCC 6633, BHI agar, 37° C., 18 hours, read-out: MIC): 3000 mg/L (≈ 18.3 mM) | activity (in words) ([2]; Bacillus subtilis ATCC6633): had an activity | Growth on agar plate ([2]; Bacillus subtilis ATCC 6633, 0.25 mg/mL): + | Growth on agar plate ([2]; Bacillus subtilis ATCC 6633, 0.5 mg/mL): + | Growth on agar plate ([2]; Bacillus subtilis ATCC 6633, 1.0 mg/mL): + | Growth on agar plate ([2]; Bacillus subtilis ATCC 6633, 2.0 mg/mL): + | Growth on agar plate ([2]; Bacillus subtilis ATCC 6633, 3.0 mg/mL): − | Growth on agar plate ([2]; Bacillus subtilis ATCC 6633, 4.0 mg/mL): − | Growth on agar plate ([3]; 0.25 mg/mL): + | Growth on agar plate ([3]; 0.5 mg/mL): + | Growth on agar plate ([3]; 1.0 mg/mL): + | Growth on agar plate ([3]; 2.0 mg/mL): + | Growth on agar plate ([3]; 3.0 mg/mL): + | Growth on agar plate ([3]; 4.0 mg/mL): + | activity (in words) [4]: had an activity | Growth on agar plate ([4]; 0.25 mg/mL): + | Growth on agar plate ([4]; 0.5 mg/mL): + | Growth on agar plate ([4]; 1.0 mg/mL): + | Growth on agar plate ([4]; 2.0 mg/mL): + | Growth on agar plate ([4]; 3.0 mg/mL): − | Growth on agar plate ([4]; 4.0 mg/mL): − | MIC [4, 14]: 3000 mg/L (≈ 18.3 mM) | Growth on agar plate ([5]; 0.25 mg/mL): + | Growth on agar plate ([5]; 0.5 mg/mL): + | Growth on agar plate ([5]; 1.0 mg/mL): + | Growth on agar plate ([5]; 2.0 mg/mL): + | Growth on agar plate ([5]; 3.0 mg/mL): + | Growth on agar plate ([5]; 4.0 mg/mL): + | Growth on agar plate ([6]; 0.25 mg/mL): + | Growth on agar plate ([6]; 0.5 mg/mL): + | Growth on agar plate ([6]; 1.0 mg/mL): + | Growth on agar plate ([6]; 2.0 mg/mL): + | Growth on agar plate ([6]; 3.0 mg/mL): + | Growth on agar plate ([6]; 4.0 mg/mL): + | Growth on agar plate ([7]; 0.25 mg/mL): + | Growth on agar plate ([7]; 0.5 mg/mL): + | Growth on agar plate ([7]; 1.0 mg/mL): + | Growth on agar plate ([7]; 2.0 mg/mL): + | Growth on agar plate ([7]; 3.0 mg/mL): + | Growth on agar plate ([7]; 4.0 mg/mL): + | Growth on agar plate ([8]; 0.25 mg/mL): + | Growth on agar plate ([8]; 0.5 mg/mL): + | Growth on agar plate ([8]; 1.0 mg/mL): + | Growth on agar plate ([8]; 2.0 mg/mL): + | Growth on agar plate ([8]; 3.0 mg/mL): + | Growth on agar plate ([8]; 4.0 mg/mL): + | activity (in words) [9]: had an activity | Growth on agar plate ([9]; 0.25 mg/mL): + | Growth on agar plate ([9]; 0.5 mg/mL): + | Growth on agar plate ([9]; 1.0 mg/mL): + | Growth on agar plate ([9]; 2.0 mg/mL): + | Growth on agar plate ([9]; 3.0 mg/mL): + | Growth on agar plate ([9]; 4.0 mg/mL): − | MIC [9, 14]: 4000 mg/L (≈ 24.4 mM) | activity (in words) [10]: had an activity | Growth on agar plate ([10]; 0.25 mg/mL): + | Growth on agar plate ([10]; 0.5 mg/mL): + | Growth on agar plate ([10]; 1.0 mg/mL): + | Growth on agar plate ([10]; 2.0 mg/mL): − | Growth on agar plate ([10]; 3.0 mg/mL): − | Growth on agar plate ([10]; 4.0 mg/mL): − | MIC [10, 14]: 2000 mg/L (≈ 12.2 mM) | activity (in words) [11]: had an activity | Growth on agar plate ([11]; 0.25 mg/mL): + | Growth on agar plate ([11]; 0.5 mg/mL): + | Growth on agar plate ([11]; 1.0 mg/mL): + | Growth on agar plate ([11]; 2.0 mg/mL): + | Growth on agar plate ([11]; 3.0 mg/mL): − | Growth on agar plate ([11]; 4.0 mg/mL): − | MIC [11, 14]: 3000 mg/L (≈ 18.3 mM) | activity (in words) [12]: had an activity | Growth on agar plate ([12]; 0.25 mg/mL): + | Growth on agar plate ([12]; 0.5 mg/mL): + | Growth on agar plate ([12]; 1.0 mg/mL): + | Growth on agar plate ([12]; 2.0 mg/mL): + | Growth on agar plate ([12]; 3.0 mg/mL): − | Growth on agar plate ([12]; 4.0 mg/mL): − | MIC [12, 14]: 3000 mg/L (≈ 18.3 mM) | activity (in words) [13]: had an activity | Growth on agar plate ([13]; 0.25 mg/mL): + | Growth on agar plate ([13]; 0.5 mg/mL): + | Growth on agar plate ([13]; 1.0 mg/mL): + | Growth on agar plate ([13]; 2.0 mg/mL): + | Growth on agar plate ([13]; 3.0 mg/mL): + | Growth on agar plate ([13]; 4.0 mg/mL): − | MIC [13, 14]: 4000 mg/L (≈ 24.4 mM)
